The supplement of paper PMC10307832

Tests used:
Experiment in all cases: relative viability (nuclei count vs DMSO), 5 days (fraction); higher = more cells survive
Gemcitabine + Tozasertib = compound: Nc1ccn([C@@H]2O[C@H](CO)[C@@H](O)C2(F)F)c(=O)n1 [Gemcitabine] + Cc1cc(Nc2cc(N3CCN(C)CC3)nc(Sc3ccc(NC(=O)C4CC4)cc3)n2)n[nH]1 [Tozasertib] (partner 0.1 µM)
Method in brief: (§1)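 Relative viability divides the nuclei count in treated wells by that in vehicle wells. Lung cancer cell lines were seeded in 1536-well plates, dosed by pin tool the next day, and fixed and stained after 5 days in one step with final 0.05% Triton X-100, 1% formaldehyde and 1 ug/ml Hoechst. Dosing was a single drug or a fixed anchor-drug dose plus five library-drug doses (not always all listed) in √10 steps, and values are medians of duplicate plates imaged at 4×.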

Gemcitabine + Dasatinib = compound: Nc1ccn([C@@H]2O[C@H](CO)[C@@H](O)C2(F)F)c(=O)n1 [Gemcitabine] + Cc1nc(Nc2ncc(C(=O)Nc3c(C)cccc3Cl)s2)cc(N2CCN(CCO)CC2)n1 [Dasatinib] (partner 0.075 µM)
Method in brief: as §1

Gemcitabine + Luminespib = compound: Nc1ccn([C@@H]2O[C@H](CO)[C@@H](O)C2(F)F)c(=O)n1 [Gemcitabine] + CCNC(=O)c1noc(-c2cc(C(C)C)c(O)cc2O)c1-c1ccc(CN2CCOCC2)cc1 [Luminespib] (partner 0.01 µM)
Method in brief: as §1

Gemcitabine + Phenformin = compound: Nc1ccn([C@@H]2O[C@H](CO)[C@@H](O)C2(F)F)c(=O)n1 [Gemcitabine] + N=C(N)NC(=N)NCCc1ccccc1 [Phenformin] (partner 250 µM)
Method in brief: as §1

Gemcitabine + OSI-027 = compound: Nc1ccn([C@@H]2O[C@H](CO)[C@@H](O)C2(F)F)c(=O)n1 [Gemcitabine] + COc1cccc2cc(-c3nc([C@H]4CC[C@H](C(=O)O)CC4)n4ncnc(N)c34)[nH]c12 [OSI-027] (partner 0.5 µM)
Method in brief: as §1

Gemcitabine + Foretinib = compound: Nc1ccn([C@@H]2O[C@H](CO)[C@@H](O)C2(F)F)c(=O)n1 [Gemcitabine] + COc1cc2c(Oc3ccc(NC(=O)C4(C(=O)Nc5ccc(F)cc5)CC4)cc3F)ccnc2cc1OCCCN1CCOCC1 [Foretinib] (partner 0.25 µM)
Method in brief: as §1

Gemcitabine = compound: Nc1ccn([C@@H]2O[C@H](CO)[C@@H](O)C2(F)F)c(=O)n1 [Gemcitabine]
Method in brief: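 MetaXpress counted nuclei in 4× images of lung cancer cell lines that had been fixed, permeabilised and Hoechst-stained in one step. Before that, cells in 1536-well plates were kept overnight at 37 °C, pinned with five √10-spaced library-drug doses on vehicle-anchored plates, and cultured 5 days without medium change. Viability takes treated-well nuclei over vehicle-well nuclei and uses the median across plates. Plates were accepted only at control CV below 25% and at least one doubling.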

Gemcitabine + Vorinostat = compound: Nc1ccn([C@@H]2O[C@H](CO)[C@@H](O)C2(F)F)c(=O)n1 [Gemcitabine] + O=C(CCCCCCC(=O)Nc1ccccc1)NO [Vorinostat] (partner 1 µM)
Method in brief: as §1

Gemcitabine + Pemetrexed = compound: Nc1ccn([C@@H]2O[C@H](CO)[C@@H](O)C2(F)F)c(=O)n1 [Gemcitabine] + Nc1nc2[nH]cc(CCc3ccc(C(=O)N[C@@H](CCC(=O)O)C(=O)O)cc3)c2c(=O)[nH]1 [Pemetrexed] (partner 0.2 µM)
Method in brief: as §1

Gemcitabine + AZD7762 = compound: Nc1ccn([C@@H]2O[C@H](CO)[C@@H](O)C2(F)F)c(=O)n1 [Gemcitabine] + NC(=O)Nc1cc(-c2cccc(F)c2)sc1C(=O)N[C@H]1CCCNC1 [AZD7762] (partner 0.2 µM)
Method in brief: as §1

Gemcitabine + Trametinib = compound: Nc1ccn([C@@H]2O[C@H](CO)[C@@H](O)C2(F)F)c(=O)n1 [Gemcitabine] + CC(=O)Nc1cccc(-n2c(=O)n(C3CC3)c(=O)c3c(Nc4ccc(I)cc4F)n(C)c(=O)c(C)c32)c1 [Trametinib] (partner 0.02 µM)
Method in brief: as §1

Gemcitabine + Decitabine = compound: Nc1ccn([C@@H]2O[C@H](CO)[C@@H](O)C2(F)F)c(=O)n1 [Gemcitabine] + Nc1ncn([C@H]2C[C@H](O)[C@@H](CO)O2)c(=O)n1 [Decitabine] (partner 2 µM)
Method in brief: as §1

Gemcitabine + Olaparib = compound: Nc1ccn([C@@H]2O[C@H](CO)[C@@H](O)C2(F)F)c(=O)n1 [Gemcitabine] + O=C(c1cc(Cc2n[nH]c(=O)c3ccccc23)ccc1F)N1CCN(C(=O)C2CC2)CC1 [Olaparib] (partner 8 µM)
Method in brief: as §1

[1] = compound: Nc1ccn([C@@H]2O[C@H](CO)[C@@H](O)C2(F)F)c(=O)n1 [Gemcitabine] + CC(=O)c1c(C)c2cnc(Nc3ccc(N4CCNCC4)cn3)nc2n(C2CCCC2)c1=O [Palbociclib] (partner 0.5 µM)
Method in brief: as §1

NCI-H1623 was tested, and the relative viability (Gemcitabine + Tozasertib; first compound 0.001 µM) was 0.333, the relative viability (Gemcitabine + Tozasertib; first compound 0.003162 µM) was 0.222 and the relative viability (Gemcitabine + Tozasertib; first compound 0.01 µM) was 0.173. The relative viability (Gemcitabine + Tozasertib; first compound 0.03162 µM) was 0.16, the relative viability (Gemcitabine + Tozasertib; first compound 0.1 µM) was 0.17 and the relative viability (Gemcitabine + Dasatinib; first compound 0.001 µM) was 0.485. It also gave a relative viability (Gemcitabine + Dasatinib; first compound 0.003162 µM) of 0.431, a relative viability (Gemcitabine + Dasatinib; first compound 0.01 µM) of 0.175 and a relative viability (Gemcitabine + Dasatinib; first compound 0.03162 µM) of 0.139. For the same cell line, the relative viability (Gemcitabine + Dasatinib; first compound 0.1 µM) was 0.143, the relative viability (Gemcitabine + Luminespib; first compound 0.001 µM) was 0.43 and the relative viability (Gemcitabine + Luminespib; first compound 0.003162 µM) was 0.308. The relative viability (Gemcitabine + Luminespib; first compound 0.01 µM) was 0.279, the relative viability (Gemcitabine + Luminespib; first compound 0.03162 µM) was 0.236 and the relative viability (Gemcitabine + Luminespib; first compound 0.1 µM) was 0.234. The relative viability (Gemcitabine + Phenformin; first compound 0.001 µM) was 0.526, the relative viability (Gemcitabine + Phenformin; first compound 0.003162 µM) was 0.49 and the relative viability (Gemcitabine + Phenformin; first compound 0.01 µM) was 0.201. The relative viability (Gemcitabine + Phenformin; first compound 0.03162 µM) was 0.369, the relative viability (Gemcitabine + Phenformin; first compound 0.1 µM) was 0.164 and the relative viability (Gemcitabine + OSI-027; first compound 0.001 µM) was 0.349. It also gave a relative viability (Gemcitabine + OSI-027; first compound 0.003162 µM) of 0.29, a relative viability (Gemcitabine + OSI-027; first compound 0.01 µM) of 0.254 and a relative viability (Gemcitabine + OSI-027; first compound 0.03162 µM) of 0.245. For the same cell line, the relative viability (Gemcitabine + OSI-027; first compound 0.1 µM) was 0.237, the relative viability (Gemcitabine + Foretinib; first compound 0.001 µM) was 0.741 and the relative viability (Gemcitabine + Foretinib; first compound 0.003162 µM) was 0.518. It also gave a relative viability (Gemcitabine + Foretinib; first compound 0.01 µM) of 0.268, a relative viability (Gemcitabine + Foretinib; first compound 0.03162 µM) of 0.229 and a relative viability (Gemcitabine + Foretinib; first compound 0.1 µM) of 0.194. The relative viability (Gemcitabine; 0.001 µM) was 0.743, the relative viability (Gemcitabine; 0.003162 µM) was 0.255 and the relative viability (Gemcitabine; 0.01 µM) was 0.218. The relative viability (Gemcitabine; 0.03162 µM) was 0.188 and the relative viability (Gemcitabine; 0.1 µM) was 0.178.
Cell Line NCI-H1648 has a relative viability (Gemcitabine + Vorinostat; first compound 0.001 µM) of 0.435, a relative viability (Gemcitabine + Vorinostat; first compound 0.003162 µM) of 0.388 and a relative viability (Gemcitabine + Vorinostat; first compound 0.01 µM) of 0.461. The relative viability (Gemcitabine + Vorinostat; first compound 0.03162 µM) was 0.288, the relative viability (Gemcitabine + Vorinostat; first compound 0.1 µM) was 0.209 and the relative viability (Gemcitabine + Tozasertib; first compound 0.001 µM) was 0.593. For the same cell line, the relative viability (Gemcitabine + Tozasertib; first compound 0.01 µM) was 0.407, the relative viability (Gemcitabine + Tozasertib; first compound 0.03162 µM) was 0.251 and the relative viability (Gemcitabine + Tozasertib; first compound 0.1 µM) was 0.198. The relative viability (Gemcitabine + Pemetrexed; first compound 0.001 µM) was 0.836, the relative viability (Gemcitabine + Pemetrexed; first compound 0.003162 µM) was 0.64 and the relative viability (Gemcitabine + Pemetrexed; first compound 0.01 µM) was 0.628. For the same cell line, the relative viability (Gemcitabine + Pemetrexed; first compound 0.03162 µM) was 0.339, the relative viability (Gemcitabine + Pemetrexed; first compound 0.1 µM) was 0.349 and the relative viability (Gemcitabine + AZD7762; first compound 0.001 µM) was 0.686. The relative viability (Gemcitabine + AZD7762; first compound 0.003162 µM) was 0.551, the relative viability (Gemcitabine + AZD7762; first compound 0.01 µM) was 0.401 and the relative viability (Gemcitabine + AZD7762; first compound 0.03162 µM) was 0.3. The relative viability (Gemcitabine + AZD7762; first compound 0.1 µM) was 0.279, the relative viability (Gemcitabine + Trametinib; first compound 0.001 µM) was 0.423 and the relative viability (Gemcitabine + Trametinib; first compound 0.003162 µM) was 0.339. It also gave a relative viability (Gemcitabine + Trametinib; first compound 0.01 µM) of 0.473, a relative viability (Gemcitabine + Trametinib; first compound 0.03162 µM) of 0.326 and a relative viability (Gemcitabine + Trametinib; first compound 0.1 µM) of 0.234. It also gave a relative viability (Gemcitabine + Decitabine; first compound 0.001 µM) of 0.515, a relative viability (Gemcitabine + Decitabine; first compound 0.003162 µM) of 0.443 and a relative viability (Gemcitabine + Decitabine; first compound 0.01 µM) of 0.442. It also gave a relative viability (Gemcitabine + Decitabine; first compound 0.03162 µM) of 0.315, a relative viability (Gemcitabine + Decitabine; first compound 0.1 µM) of 0.293 and a relative viability (Gemcitabine + Olaparib; first compound 0.001 µM) of 1.01. For the same cell line, the relative viability (Gemcitabine + Olaparib; first compound 0.003162 µM) was 0.659, the relative viability (Gemcitabine + Olaparib; first compound 0.01 µM) was 0.497 and the relative viability (Gemcitabine + Olaparib; first compound 0.03162 µM) was 0.335. It also gave a relative viability (Gemcitabine + Olaparib; first compound 0.1 µM) of 0.227, a relative viability (Gemcitabine + OSI-027; first compound 0.001 µM) of 0.245 and a relative viability (Gemcitabine + OSI-027; first compound 0.01 µM) of 0.245. The relative viability (Gemcitabine + OSI-027; first compound 0.03162 µM) was 0.228, the relative viability (Gemcitabine + OSI-027; first compound 0.1 µM) was 0.276 and the relative viability ([1]; first compound 0.001 µM) was 0.267. It also gave a relative viability ([1]; first compound 0.003162 µM) of 0.273, a relative viability ([1]; first compound 0.01 µM) of 0.262 and a relative viability ([1]; first compound 0.03162 µM) of 0.226. It also gave a relative viability ([1]; first compound 0.1 µM) of 0.327, a relative viability (Gemcitabine; 0.001 µM) of 0.846 and a relative viability (Gemcitabine; 0.003162 µM) of 0.771. For the same cell line, the relative viability (Gemcitabine; 0.01 µM) was 0.999, the relative viability (Gemcitabine; 0.03162 µM) was 0.413 and the relative viability (Gemcitabine; 0.1 µM) was 0.283.
